From BindingDB's records for doi:10.1021/jm020134i (Northwestern University, 2002)

Experiment: Concentration dependent inactivation of gGamma-amino-N-butyrate transaminase

Q: Which Ki does the source give for `N[C@@H]1C=CC[C@H](C(=O)O)C1` [5-Amino-cyclohex-3-enecarboxylic acid] here?
A: 2300 µM
